# From US12281080B2, “Quinoline-based compounds and methods of inhibiting CDK8/19” (University of South Carolina, priority 2018, dated 2025)
# Where two headings read alike, the source gives them in different places.
# What was measured:
# KIT = KIT (Homo sapiens (Human), UniProt P10721); assay: KINOMEscan scanMAX; type: binding; settings: 2000 nM; read-out: Percent Control
# DAPK3 = DAPK3 (Homo sapiens (Human), UniProt O43293); assay: KINOMEscan scanMAX; type: binding; settings: 2000 nM; read-out: Percent Control
# SGK2 = SGK2 (Homo sapiens (Human), UniProt Q9HBY8); assay: KINOMEscan scanMAX; type: binding; settings: 2000 nM; read-out: Percent Control
# HIPK4 = HIPK4 (Homo sapiens (Human), UniProt Q8NE63); assay: KINOMEscan scanMAX; type: binding; settings: 2000 nM; read-out: Percent Control
# [1] = target: JAK1(JH2domain-pseudokinase) (Homo sapiens (Human), UniProt P23458); assay: KINOMEscan scanMAX; type: binding; settings: 2000 nM; read-out: Percent Control
# LATS1 = LATS1 (Homo sapiens (Human), UniProt O95835); assay: KINOMEscan scanMAX; type: binding; settings: 2000 nM; read-out: Percent Control
# FLT3(ITD, D835V) = assay: KINOMEscan scanMAX; type: binding, human; settings: 2000 nM
# [2] = tested on: CDK8/19-mediated NFκB-driven transcription; assay: NFκB-dependent luciferase reporter assay in parental 293 reporter cells; type: cell-based, human; settings: Homo sapiens
# SYK = SYK (Homo sapiens (Human), UniProt P43405); assay: KINOMEscan scanMAX; type: binding; settings: 2000 nM; read-out: Percent Control
# MST2 (STK3) = MST2 (STK3) (Homo sapiens (Human), UniProt Q13188); assay: KINOMEscan scanMAX; type: binding; settings: 2000 nM; read-out: Percent Control
# EGFR = EGFR (Homo sapiens (Human), UniProt P00533); assay: KINOMEscan scanMAX; type: binding; settings: 2000 nM; read-out: Percent Control
# PKAC-beta (PRKACB) = PKAC-beta (PRKACB) (Homo sapiens (Human), UniProt P22694); assay: KINOMEscan scanMAX; type: binding; settings: 2000 nM; read-out: Percent Control
# MEK5 (MAP2K5) = MEK5 (MAP2K5) (Homo sapiens (Human), UniProt Q13163); assay: KINOMEscan scanMAX; type: binding; settings: 2000 nM; read-out: Percent Control
# ABL1-nonphosphorylated = ABL1-nonphosphorylated (Homo sapiens (Human), UniProt P00519); assay: KINOMEscan scanMAX; type: binding; settings: 2000 nM; read-out: Percent Control
# ERK4 (MAPK4) = ERK4 (MAPK4) (Homo sapiens (Human), UniProt P31152); assay: KINOMEscan scanMAX; type: binding; settings: 2000 nM; read-out: Percent Control
# GSK3A = GSK3A (Homo sapiens (Human), UniProt P49840); assay: KINOMEscan scanMAX; type: binding; settings: 2000 nM; read-out: Percent Control
# PDGFRA = PDGFRA (Homo sapiens (Human), UniProt P16234); assay: KINOMEscan scanMAX; type: binding; settings: 2000 nM; read-out: Percent Control
# ICK = ICK (Homo sapiens (Human), UniProt Q9UPZ9); assay: KINOMEscan scanMAX; type: binding; settings: 2000 nM; read-out: Percent Control
# MYLK2 = MYLK2 (Homo sapiens (Human), UniProt Q9H1R3); assay: KINOMEscan scanMAX; type: binding; settings: 2000 nM; read-out: Percent Control
# PIP5K1C = PIP5K1C (Homo sapiens (Human), UniProt O60331); assay: KINOMEscan scanMAX; type: binding; settings: 2000 nM; read-out: Percent Control
# BIKE (BMP2K) = BIKE (BMP2K) (Homo sapiens (Human), UniProt Q9NSY1); assay: KINOMEscan scanMAX; type: binding; settings: 2000 nM; read-out: Percent Control
# RET(V804M) = RET(V804M) (Homo sapiens (Human), UniProt P07949, V804M); assay: KINOMEscan scanMAX; type: binding; settings: 2000 nM; read-out: Percent Control
# [3] = target: JAK3(JH1domain-catalytic) (Homo sapiens (Human), UniProt P52333); assay: KINOMEscan scanMAX; type: binding; settings: 2000 nM; read-out: Percent Control
# SRC = SRC (Homo sapiens (Human), UniProt P12931); assay: KINOMEscan scanMAX; type: binding; settings: 2000 nM; read-out: Percent Control
# PIK3CA(I800L) = PIK3CA(I800L) (Homo sapiens (Human), UniProt P42336, I800L); assay: KINOMEscan scanMAX; type: binding; settings: 2000 nM; read-out: Percent Control
# WNK2 = WNK2 (Homo sapiens (Human), UniProt Q9Y3S1); assay: KINOMEscan scanMAX; type: binding; settings: 2000 nM; read-out: Percent Control
# FLT3(ITD, F691L) = assay: KINOMEscan scanMAX; type: binding, human; settings: 2000 nM
# MST1R = MST1R (Homo sapiens (Human), UniProt Q04912); assay: KINOMEscan scanMAX; type: binding; settings: 2000 nM; read-out: Percent Control
# TNIK = TNIK (Homo sapiens (Human), UniProt Q9UKE5); assay: KINOMEscan scanMAX; type: binding; settings: 2000 nM; read-out: Percent Control
# CLK4 = CLK4 (Homo sapiens (Human), UniProt Q9HAZ1); assay: KINOMEscan scanMAX; type: binding; settings: 2000 nM; read-out: Percent Control
# RIPK1 = RIPK1 (Homo sapiens (Human), UniProt Q13546); assay: KINOMEscan scanMAX; type: binding; settings: 2000 nM; read-out: Percent Control
# RIPK4 = RIPK4 (Homo sapiens (Human), UniProt P57078); assay: KINOMEscan scanMAX; type: binding; settings: 2000 nM; read-out: Percent Control
# p38-beta (MAPK11) = p38-beta (MAPK11) (Homo sapiens (Human), UniProt Q15759); assay: KINOMEscan scanMAX; type: binding; settings: 2000 nM; read-out: Percent Control
# [4] = target: ABL1(T315I)-phosphorylated (Homo sapiens (Human), UniProt P00519, T315I); assay: KINOMEscan scanMAX; type: binding; settings: 2000 nM; read-out: Percent Control
# NEK7 = NEK7 (Homo sapiens (Human), UniProt Q8TDX7); assay: KINOMEscan scanMAX; type: binding; settings: 2000 nM; read-out: Percent Control
# CAMK1 = CAMK1 (Homo sapiens (Human), UniProt Q14012); assay: KINOMEscan scanMAX; type: binding; settings: 2000 nM; read-out: Percent Control
# FAK (PTK2) = FAK (PTK2) (Homo sapiens (Human), UniProt Q05397); assay: KINOMEscan scanMAX; type: binding; settings: 2000 nM; read-out: Percent Control
# EGFR(L858R, T790M) = EGFR(L858R, T790M) (Homo sapiens (Human), UniProt P00533, L858R/T790M); assay: KINOMEscan scanMAX; type: binding; settings: 2000 nM; read-out: Percent Control
# PFTK1 (CDK14) = PFTK1 (CDK14) (Homo sapiens (Human), UniProt O94921); assay: KINOMEscan scanMAX; type: binding; settings: 2000 nM; read-out: Percent Control
# Sequence of RIPK1 (Q13546 whole entry): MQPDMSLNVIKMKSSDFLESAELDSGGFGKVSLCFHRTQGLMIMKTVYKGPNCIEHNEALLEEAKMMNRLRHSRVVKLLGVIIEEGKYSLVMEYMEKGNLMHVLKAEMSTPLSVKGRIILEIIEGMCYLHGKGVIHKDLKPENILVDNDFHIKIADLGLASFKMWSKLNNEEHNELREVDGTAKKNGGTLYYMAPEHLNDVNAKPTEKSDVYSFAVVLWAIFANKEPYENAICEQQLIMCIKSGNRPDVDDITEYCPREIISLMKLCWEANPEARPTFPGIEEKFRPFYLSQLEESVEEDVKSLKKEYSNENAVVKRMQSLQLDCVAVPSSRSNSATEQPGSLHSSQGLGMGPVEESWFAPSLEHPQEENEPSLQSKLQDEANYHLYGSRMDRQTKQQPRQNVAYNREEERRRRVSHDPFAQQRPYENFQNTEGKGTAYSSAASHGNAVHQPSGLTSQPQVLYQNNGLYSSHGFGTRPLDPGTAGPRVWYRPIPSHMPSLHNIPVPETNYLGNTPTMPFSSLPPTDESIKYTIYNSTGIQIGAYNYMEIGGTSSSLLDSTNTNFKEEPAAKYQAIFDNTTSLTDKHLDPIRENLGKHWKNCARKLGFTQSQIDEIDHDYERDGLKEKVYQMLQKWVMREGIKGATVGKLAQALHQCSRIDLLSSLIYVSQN
# Sequence of MST1R (Q04912 25-1400): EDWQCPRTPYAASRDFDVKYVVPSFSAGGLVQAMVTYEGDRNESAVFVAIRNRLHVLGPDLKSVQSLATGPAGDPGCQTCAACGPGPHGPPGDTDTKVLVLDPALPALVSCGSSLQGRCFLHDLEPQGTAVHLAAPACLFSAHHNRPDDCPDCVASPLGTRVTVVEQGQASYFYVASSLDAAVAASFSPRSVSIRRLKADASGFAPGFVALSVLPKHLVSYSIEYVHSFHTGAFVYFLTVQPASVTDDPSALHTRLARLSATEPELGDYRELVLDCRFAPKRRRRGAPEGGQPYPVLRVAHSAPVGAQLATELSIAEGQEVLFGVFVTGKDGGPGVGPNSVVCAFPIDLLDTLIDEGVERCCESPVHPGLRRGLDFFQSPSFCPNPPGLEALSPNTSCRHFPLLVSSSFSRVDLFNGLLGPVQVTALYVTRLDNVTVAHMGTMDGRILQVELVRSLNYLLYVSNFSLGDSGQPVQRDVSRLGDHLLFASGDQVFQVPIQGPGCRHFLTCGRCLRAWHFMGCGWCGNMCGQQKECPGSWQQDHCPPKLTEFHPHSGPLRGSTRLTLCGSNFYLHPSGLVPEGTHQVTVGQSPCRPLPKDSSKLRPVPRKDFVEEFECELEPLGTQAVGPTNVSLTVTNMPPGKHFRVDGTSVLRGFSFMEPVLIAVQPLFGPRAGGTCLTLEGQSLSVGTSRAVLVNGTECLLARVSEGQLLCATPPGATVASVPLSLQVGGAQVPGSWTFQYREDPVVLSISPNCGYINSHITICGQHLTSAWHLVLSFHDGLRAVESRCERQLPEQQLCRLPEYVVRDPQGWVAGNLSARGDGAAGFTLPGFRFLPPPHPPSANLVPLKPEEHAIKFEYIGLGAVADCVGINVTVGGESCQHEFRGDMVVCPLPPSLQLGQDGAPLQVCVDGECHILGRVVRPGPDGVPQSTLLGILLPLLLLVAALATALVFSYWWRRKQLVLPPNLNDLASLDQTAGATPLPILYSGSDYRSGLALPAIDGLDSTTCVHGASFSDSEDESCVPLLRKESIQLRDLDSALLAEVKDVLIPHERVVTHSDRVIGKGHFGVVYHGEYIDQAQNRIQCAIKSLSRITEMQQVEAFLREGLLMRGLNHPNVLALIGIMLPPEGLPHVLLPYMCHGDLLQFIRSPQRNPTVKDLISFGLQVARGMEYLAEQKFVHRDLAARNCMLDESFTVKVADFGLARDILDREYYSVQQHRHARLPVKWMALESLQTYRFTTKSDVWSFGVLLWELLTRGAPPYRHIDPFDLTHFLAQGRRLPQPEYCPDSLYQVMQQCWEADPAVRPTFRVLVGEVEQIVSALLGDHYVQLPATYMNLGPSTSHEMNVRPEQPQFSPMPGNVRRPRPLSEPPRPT
# Sequence of PIK3CA(I800L) (P42336 whole entry I800L): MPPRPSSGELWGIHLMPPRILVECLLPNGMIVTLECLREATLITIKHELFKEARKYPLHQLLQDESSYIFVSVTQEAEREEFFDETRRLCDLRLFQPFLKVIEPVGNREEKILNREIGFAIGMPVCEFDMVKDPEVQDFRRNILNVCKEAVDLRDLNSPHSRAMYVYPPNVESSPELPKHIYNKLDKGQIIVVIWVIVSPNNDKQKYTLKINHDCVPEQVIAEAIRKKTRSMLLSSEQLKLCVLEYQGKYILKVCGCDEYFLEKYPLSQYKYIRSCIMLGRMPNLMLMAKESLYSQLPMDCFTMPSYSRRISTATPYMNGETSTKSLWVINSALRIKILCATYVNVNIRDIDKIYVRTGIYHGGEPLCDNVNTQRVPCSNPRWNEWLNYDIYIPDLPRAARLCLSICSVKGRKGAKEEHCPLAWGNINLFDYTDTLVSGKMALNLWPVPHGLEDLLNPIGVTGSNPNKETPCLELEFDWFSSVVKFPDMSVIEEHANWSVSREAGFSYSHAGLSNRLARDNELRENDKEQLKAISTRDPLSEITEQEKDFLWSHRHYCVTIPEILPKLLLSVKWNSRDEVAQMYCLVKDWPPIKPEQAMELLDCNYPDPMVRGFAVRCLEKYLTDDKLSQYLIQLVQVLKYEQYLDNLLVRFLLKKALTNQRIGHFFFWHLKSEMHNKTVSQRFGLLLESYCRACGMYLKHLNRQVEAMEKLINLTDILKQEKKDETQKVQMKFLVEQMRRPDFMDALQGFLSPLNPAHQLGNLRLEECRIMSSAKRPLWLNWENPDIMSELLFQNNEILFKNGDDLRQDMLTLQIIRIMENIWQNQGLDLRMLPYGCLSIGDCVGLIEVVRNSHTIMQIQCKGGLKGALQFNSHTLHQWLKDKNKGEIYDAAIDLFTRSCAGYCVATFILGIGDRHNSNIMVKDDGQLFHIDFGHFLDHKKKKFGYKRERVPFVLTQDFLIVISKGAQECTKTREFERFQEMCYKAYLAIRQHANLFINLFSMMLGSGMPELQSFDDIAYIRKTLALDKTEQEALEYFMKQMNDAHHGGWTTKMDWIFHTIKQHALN
# Sequence of EGFR (P00533 25-1210): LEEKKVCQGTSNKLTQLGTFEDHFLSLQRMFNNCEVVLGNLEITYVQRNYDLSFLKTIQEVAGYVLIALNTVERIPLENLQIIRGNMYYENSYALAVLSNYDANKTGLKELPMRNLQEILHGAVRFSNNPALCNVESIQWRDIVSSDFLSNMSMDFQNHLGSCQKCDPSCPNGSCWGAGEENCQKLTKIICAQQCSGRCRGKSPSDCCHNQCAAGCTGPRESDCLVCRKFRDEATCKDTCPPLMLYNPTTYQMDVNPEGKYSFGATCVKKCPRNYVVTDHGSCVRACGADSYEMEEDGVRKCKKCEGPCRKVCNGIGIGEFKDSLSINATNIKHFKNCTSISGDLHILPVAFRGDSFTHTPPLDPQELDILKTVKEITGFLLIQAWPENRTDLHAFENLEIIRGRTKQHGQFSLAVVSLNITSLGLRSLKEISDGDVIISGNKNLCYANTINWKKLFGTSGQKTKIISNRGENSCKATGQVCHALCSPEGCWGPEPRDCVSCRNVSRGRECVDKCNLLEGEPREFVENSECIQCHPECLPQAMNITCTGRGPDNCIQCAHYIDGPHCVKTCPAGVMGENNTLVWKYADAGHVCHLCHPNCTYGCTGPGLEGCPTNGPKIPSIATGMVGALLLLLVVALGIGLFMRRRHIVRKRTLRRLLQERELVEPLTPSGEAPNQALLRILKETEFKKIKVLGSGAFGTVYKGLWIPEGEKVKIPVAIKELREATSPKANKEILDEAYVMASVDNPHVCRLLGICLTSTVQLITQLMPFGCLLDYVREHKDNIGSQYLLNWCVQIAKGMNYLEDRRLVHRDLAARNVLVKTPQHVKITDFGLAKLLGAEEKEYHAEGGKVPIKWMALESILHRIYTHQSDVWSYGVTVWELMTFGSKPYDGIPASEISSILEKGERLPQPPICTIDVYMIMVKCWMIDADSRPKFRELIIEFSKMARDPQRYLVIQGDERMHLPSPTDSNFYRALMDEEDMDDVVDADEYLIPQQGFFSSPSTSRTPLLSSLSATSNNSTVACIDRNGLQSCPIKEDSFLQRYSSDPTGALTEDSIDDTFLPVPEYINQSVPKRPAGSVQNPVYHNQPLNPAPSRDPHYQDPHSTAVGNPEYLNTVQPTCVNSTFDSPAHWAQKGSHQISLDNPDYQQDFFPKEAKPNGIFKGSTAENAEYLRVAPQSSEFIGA
# Sequence of PIP5K1C (O60331 whole entry): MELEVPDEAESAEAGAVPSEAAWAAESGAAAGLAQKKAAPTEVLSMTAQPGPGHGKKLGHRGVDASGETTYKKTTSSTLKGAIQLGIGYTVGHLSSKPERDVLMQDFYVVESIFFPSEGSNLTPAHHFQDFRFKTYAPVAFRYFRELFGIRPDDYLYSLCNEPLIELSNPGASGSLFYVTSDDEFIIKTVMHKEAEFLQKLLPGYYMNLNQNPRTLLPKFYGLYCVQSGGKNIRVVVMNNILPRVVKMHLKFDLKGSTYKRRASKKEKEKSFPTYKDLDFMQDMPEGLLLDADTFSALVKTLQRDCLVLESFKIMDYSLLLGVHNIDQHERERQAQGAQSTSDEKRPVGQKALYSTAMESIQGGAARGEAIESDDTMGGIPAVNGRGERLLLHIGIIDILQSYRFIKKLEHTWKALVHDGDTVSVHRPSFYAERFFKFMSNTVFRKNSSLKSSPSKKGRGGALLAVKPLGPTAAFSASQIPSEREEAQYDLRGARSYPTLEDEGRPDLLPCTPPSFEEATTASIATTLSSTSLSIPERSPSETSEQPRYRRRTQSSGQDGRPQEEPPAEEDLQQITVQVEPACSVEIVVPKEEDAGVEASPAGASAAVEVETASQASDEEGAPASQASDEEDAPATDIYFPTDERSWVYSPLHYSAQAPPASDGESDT
structure (smiles),measurement,setting,value
"CN1CCN(C(=O)c2ccc3cc(CCNc4ccnc5ccc(C#N)cc45)ccc3c2)CC1 [compound 6148, 4-((2-(6-(4-methylpiperazine-1-carbonyl)naphthalen-2-yl)ethyl)amino)quinoline-6-carbonitrile]",remaining binding at 2 µM,KIT,95%
same,remaining binding at 2 µM,DAPK3,95%
same,remaining binding at 2 µM,SGK2,61%
same,remaining binding at 2 µM,HIPK4,75%
same,remaining binding at 2 µM,[1],58%
same,remaining binding at 2 µM,LATS1,76%
same,Percent Control,"FLT3(ITD, D835V)",55%
same,IC50,"[2]; 293/NFkB-luc, read-out: IC50 (293-NFKB-Luc)",55 nM
same,IC50,"[2]; HEK293, parental 293-derived reporter cell line, read-out: HEK293 NFKB CDK8 Reporter IC50",65 nM
same,remaining binding at 2 µM,SYK,97%
same,remaining binding at 2 µM,MST2 (STK3),100%
same,remaining binding at 2 µM,EGFR,91%
same,remaining binding at 2 µM,PKAC-beta (PRKACB),100%
same,remaining binding at 2 µM,MEK5 (MAP2K5),63%
same,remaining binding at 2 µM,ABL1-nonphosphorylated,71%
same,remaining binding at 2 µM,ERK4 (MAPK4),87%
same,remaining binding at 2 µM,GSK3A,94%
same,remaining binding at 2 µM,PDGFRA,97%
same,remaining binding at 2 µM,ICK,54%
same,remaining binding at 2 µM,MYLK2,91%
same,remaining binding at 2 µM,PIP5K1C,87%
same,remaining binding at 2 µM,BIKE (BMP2K),97%
same,remaining binding at 2 µM,RET(V804M),91%
same,remaining binding at 2 µM,[3],65%
same,remaining binding at 2 µM,SRC,92%
same,remaining binding at 2 µM,PIK3CA(I800L),72%
same,remaining binding at 2 µM,WNK2,59%
same,Percent Control,"FLT3(ITD, F691L)",59%
same,remaining binding at 2 µM,MST1R,100%
same,remaining binding at 2 µM,TNIK,89%
same,remaining binding at 2 µM,CLK4,69%
same,remaining binding at 2 µM,RIPK1,100%
same,remaining binding at 2 µM,RIPK4,57%
same,remaining binding at 2 µM,p38-beta (MAPK11),80%
same,remaining binding at 2 µM,[4],76%
same,remaining binding at 2 µM,NEK7,94%
same,remaining binding at 2 µM,CAMK1,84%
same,remaining binding at 2 µM,FAK (PTK2),89%
same,remaining binding at 2 µM,"EGFR(L858R, T790M)",82%
same,remaining binding at 2 µM,PFTK1 (CDK14),98%
